Test results reported in PMC10319141, “Imidazoquinolines with improved pharmacokinetic properties induce a high IFNα to TNFα ratio in vitro and in vivo” (Frontiers in Immunology, 2023).
Like-named read-outs stand apart in the source and are kept apart here.

Key:
human TLR7 = molecular target: T1, human TLR7 (Homo sapiens, UniProt Q9NYK1); test: HEK-Blue hTLR7 SEAP reporter assay; type: cell-based; settings: for TLR7 activity rel. to assay max: average maximal SEAP secretion relative to maximum secretion observed in the assay
T1 construct: host or cells: HEK blue hTLR7 reporter cells
T1 sequence (Q9NYK1 27-1049): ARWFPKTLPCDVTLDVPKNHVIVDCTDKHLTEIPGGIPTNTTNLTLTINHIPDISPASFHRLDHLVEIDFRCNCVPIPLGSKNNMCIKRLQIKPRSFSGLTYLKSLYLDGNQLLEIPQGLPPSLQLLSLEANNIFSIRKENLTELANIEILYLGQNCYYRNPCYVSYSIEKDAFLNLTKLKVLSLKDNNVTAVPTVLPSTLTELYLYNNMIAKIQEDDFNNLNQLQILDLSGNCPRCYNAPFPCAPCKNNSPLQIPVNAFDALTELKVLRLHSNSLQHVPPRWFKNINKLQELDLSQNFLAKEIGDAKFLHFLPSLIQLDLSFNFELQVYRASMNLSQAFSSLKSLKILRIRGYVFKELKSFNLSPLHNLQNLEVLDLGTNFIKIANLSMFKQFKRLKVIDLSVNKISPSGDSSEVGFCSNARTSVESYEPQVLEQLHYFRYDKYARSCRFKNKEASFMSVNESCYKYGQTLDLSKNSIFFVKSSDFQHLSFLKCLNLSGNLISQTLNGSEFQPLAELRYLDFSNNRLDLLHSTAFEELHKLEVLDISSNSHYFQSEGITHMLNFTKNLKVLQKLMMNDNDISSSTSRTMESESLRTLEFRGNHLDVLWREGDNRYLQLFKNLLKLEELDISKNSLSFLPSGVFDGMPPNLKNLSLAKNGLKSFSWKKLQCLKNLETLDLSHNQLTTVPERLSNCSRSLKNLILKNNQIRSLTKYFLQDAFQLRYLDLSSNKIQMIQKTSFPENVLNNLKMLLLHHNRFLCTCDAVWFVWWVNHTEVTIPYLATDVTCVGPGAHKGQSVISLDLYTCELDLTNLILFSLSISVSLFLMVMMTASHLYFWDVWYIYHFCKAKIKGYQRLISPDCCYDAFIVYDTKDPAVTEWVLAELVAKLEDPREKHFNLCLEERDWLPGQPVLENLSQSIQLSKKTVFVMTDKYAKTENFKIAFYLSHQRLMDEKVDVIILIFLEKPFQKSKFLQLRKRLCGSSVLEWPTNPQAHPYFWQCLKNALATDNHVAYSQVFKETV
Description: HEK blue hTLR7 or hTLR8 reporter cells (Invivogen) were cultivated in DMEM High Glucose (Biowest) according to the manufacturer’s instructions. Cells were treated with test compounds and controls at various concentrations in serum-free DMEM and incubated at 37°C, 5% CO2 for 24 h before supernatants were collected.
Relative secreted embryonic alkaline phosphatase (SEAP) activity in the supernatants was determined by quantification of para-Nitrophenyl Phosphate (pNPP)-turnover. Supernatants were diluted 10-fold in a solution containing 1 mM MgCl2, 1 M diethanolamine and 1 mg/mL pNPP and incubated at RT for 15 min before the reaction was stopped by the addition of 0.25 volumes of 1 M NaOH. Absorbance was measured at 405 nm on a Versamax microplate reader (Molecular Devices) and normalized to the mean of >5 solvent controls.
To obtain reliable estimates, replicate measurements of a minimum of 2 experiments were normalized to the maximal SEAP activity of a compound in a given experiment and pooled before fitting a non-linear function to the data.

[1] = Compound concentrations in organs and plasma after three consecutive daily s.c. treatments (Figure 6B, S7); type: in vivo, mice; settings: for compound plasma level at peak: s.c.; for concentration at 4 h / concentration at 28 h / concentration at 52 h: mouse, liver, sc, read-out: concentration in liver; for concentration at 4 h / concentration at 28 h / concentration at 52 h / levels in brain tissue / concentration in liver: repeated daily s.c. treatment; for levels in brain tissue: in words
Description: All samples were extracted with 3 or 6 volumes acetonitrile containing terbuthylazine as an internal standard (ACN) relative to either sample weight or volume. Liquid samples (plasma, culture medium, cell suspensions in stability experiments) were diluted in either 3 (culture medium, cell suspensions) or 6 (plasma) volumes ACN, pellet and blood samples were extracted by addition of ACN followed by sonication for 5 min. Organ samples were digested with 0.5 µg/mg Proteinase K (Genaxxon) for 1 h at 50°C before being homogenized using a Fastprep FP-24 5G instrument (MP-Biomedicals). Homogenates were diluted with 6 volumes ACN and homogenized again. All extracts were cleared by centrifugation at ~20.000xg for 10 min at 4°C.
Quantification of analytes was performed on an Agilent 1260/1290 Infinity system fitted with an Agilent C18 Poroshell 120 column (4.6 x 50 mm, 2.7 µm) coupled to a triple quadrupole Sciex API 4000 MS/MS detector. The mobile phase was composed of water containing 0.1% formic acid (eluent A) and acetonitrile containing 0.1% formic acid (eluent B). Gradient used was: 5% B for 0.5 min, to 100% B in 4.5 min, 100% B for 2 min, to 5% B in 0.5 min, 5% for 2.5 min. MS detection parameters are listed in SI Table S1 .
Formulation. Test compounds were prepared for application in either 1% Tween 80, 9% PEG400 in ultrapure water (Biowest) (i.v., i.p., p.o. application) or 5 mM citric acid in 0.9% saline (Braun) (subcutaneous application). If compounds were administered subcutaneously, injections were carried out into the neck crease.
Collection of Samples. Mice were bled from the tail vein at various timepoints. Heparin (Sigma) or K2-EDTA (Sigma) was added to blood samples to a final […] concentration of 10-15 Unit or 5 mM. Plasma was generated by centrifugation at 6800xg for 8 min at 4°C and stored at -80°C until analyzed by ELISA or CBA. Animals were sacrificed after the indicated time points by CO2 inhalation. Heart blood and organs for compound quantification by HPLC-MS/MS were collected post mortem and stored at –20°C until extracted as described above.
Dotted lines indicate the time of repeated compound applications. (A) Cytokine levels in pooled tail plasma of mice from individual treatment groups (n=3 per pool and time point), error bars represent range of two replicate measurements. (B) Peripheral blood was collected from the tail vein before, 15, 30 60, 120, 240, 360 and 480 min after s.c. treatment. Compound concentration in peripheral plasma was analyzed by HPLC-MS/MS, data presented as mean ± SD.
Samples were collected 4 h, 28 h and 52 h after s.c. treatment. Skin samples were sampled
at time points 4 h and 52 h. Compound concentrations were analyzed by HPLC-MS/MS, data

[2] = 95% CI, HEK-blue human TLR7, 24 h, read-out: TLR7 EC50
[3] = Figure S3, axis c/[µM], pooled from 3 experiments, read-out: compound-specific EC50 in dose response plot, HEK Blue hTLR7
[4] = day 1, 60 min after application
[5] = day 2, 60 min after application
[6] = day 3, 60 min after application

| Average maximal activity in HEK-Blue hTLR7 relative to RSQ (human TLR7) | EC50 (human TLR7; [2]) | EC50 (human TLR7; [3]) | TLR7 activity rel. to assay max (human TLR7) | compound plasma level at peak [1, 4] | compound plasma level at peak [1, 5] | compound plasma level at peak [1, 6] | concentration at 4 h ([1]; after 4 h) | concentration at 28 h ([1]; after 28 h) | concentration at 52 h ([1]; after 52 h) | levels in brain tissue [1] | concentration in liver ([1]; after 4 h) | concentration in liver ([1]; after 28 h) | concentration in liver ([1]; after 52 h) | Structure (SMILES) |
| --- | --- | --- | --- | --- | --- | --- | --- | --- | --- | --- | --- | --- | --- | --- |
| 58% | 0.096 to 0.22 µM | 0.146 µM | 58% ± 16% | 171 nM | 85 nM | 66 nM | 63 nM | 82 nM | 94 nM | baseline or close to baseline levels |  |  |  | CCCCc1nc2c(N)nc3ccccc3c2n1CCC1CCNCC1 [A1] |
| 63% | 1.5 to 2 µM | 1.76 µM | 63% ± 9% |  |  |  |  |  |  |  |  |  |  | CCCCc1nc2c(N)nc3ccccc3c2n1CC1CCN(C(=O)CN(C)CC(=O)N(C)[C@H]2C[C@@H](C)O[C@@H](O[C@@H]3[C@@H](C)[C@H](O[C@H]4C[C@@](C)(OC)[C@@H](O)[C@H](C)O4)[C@@H](C)C(=O)O[C@H](CC)[C@@](C)(O)[C@H](O)[C@@H](C)N(C)C[C@H](C)C[C@@]3(C)O)[C@@H]2O)CC1 [A2-mac] |
|  |  |  | 95% ± 5% | < LLOQ | < LLOQ | < LLOQ |  |  |  | baseline or close to baseline levels | < LLOQ | < LLOQ | < LLOQ | CCOCc1nc2c(N)nc3ccccc3c2n1CC(C)(C)O [RSQ, Resiquimod, reference compound] |
| 41% | 0.4 to 0.74 µM | 0.554 µM | 41% ± 8% | 755 nM | 585 nM | 639 nM | 2620 nM | 4460 nM | 6350 nM | baseline or close to baseline levels |  |  |  | CCCCc1nc2c(N)nc3ccccc3c2n1CCC1CCN(C(=O)CN(C)CC(=O)N(C)C2CC(C)OC(OC3C(C)C(OC4CC(C)(OC)C(O)C(C)O4)C(C)C(=O)OC(CC)C(C)(O)C(O)C(C)N(C)CC(C)CC3(C)O)C2O)CC1 (stereo not shown) [A1-mac] |
